Assay results: patent publication US20090131309A1, “ICA512 COUPLES INSULIN SECRETION AND GENE EXPRESSION IN BETA-CELLS” (Technische Universität Dresden Medizinizche Fakultät Carl …, priority 2004, published 2009)

Assays:
μ-calpain = biological target: T1, μ-calpain (Homo sapiens, UniProt P07384); type: biochemical; settings: bacterially expressed ICA512 (601-979), 50 μM Ca2+, 30 μM inhibitor
T1 sequence (P07384 1-714): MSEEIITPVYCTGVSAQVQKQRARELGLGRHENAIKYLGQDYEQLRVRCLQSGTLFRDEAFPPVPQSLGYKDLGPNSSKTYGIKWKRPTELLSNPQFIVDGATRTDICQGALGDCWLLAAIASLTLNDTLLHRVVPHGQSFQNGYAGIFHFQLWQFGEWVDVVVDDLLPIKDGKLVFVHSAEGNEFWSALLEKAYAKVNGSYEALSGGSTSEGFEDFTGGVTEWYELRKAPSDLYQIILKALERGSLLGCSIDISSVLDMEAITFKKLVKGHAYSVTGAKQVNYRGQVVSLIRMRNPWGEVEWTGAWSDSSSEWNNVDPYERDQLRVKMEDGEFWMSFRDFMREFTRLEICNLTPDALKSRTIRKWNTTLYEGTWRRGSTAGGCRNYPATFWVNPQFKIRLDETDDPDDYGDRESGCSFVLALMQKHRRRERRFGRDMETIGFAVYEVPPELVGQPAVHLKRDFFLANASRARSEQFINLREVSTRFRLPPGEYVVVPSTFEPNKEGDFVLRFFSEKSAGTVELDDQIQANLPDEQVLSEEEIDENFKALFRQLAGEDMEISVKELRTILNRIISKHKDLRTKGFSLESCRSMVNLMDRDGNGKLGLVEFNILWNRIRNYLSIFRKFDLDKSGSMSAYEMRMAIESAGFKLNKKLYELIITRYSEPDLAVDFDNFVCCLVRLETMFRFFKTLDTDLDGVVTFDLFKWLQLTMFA
T1 sequence (P04632 1-268 partner): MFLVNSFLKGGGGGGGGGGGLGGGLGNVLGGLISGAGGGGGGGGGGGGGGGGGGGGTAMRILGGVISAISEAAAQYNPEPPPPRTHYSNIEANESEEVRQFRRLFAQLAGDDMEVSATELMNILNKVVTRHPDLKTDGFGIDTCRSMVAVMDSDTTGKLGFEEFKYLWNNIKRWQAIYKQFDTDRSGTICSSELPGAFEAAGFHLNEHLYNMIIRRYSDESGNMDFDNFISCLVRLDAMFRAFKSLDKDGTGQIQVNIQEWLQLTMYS
Method: In-vitro μ-calpain cleavage. 3 μg bacterially expressed His-ICA512 cytoplasmic domain (residues 601-979) (Ort et al., 2001) were incubated in 20 μl buffer (20 mM Tris-HCl pH 7.5, 50 μM CaCl2, 1 mM L-cysteine) at room temperature with or without 150 ng μ-calpain (Calbiochem) and 30 μM calpeptin or MG-132 for 1, 5, 15 or 45 minutes. The reactions were stopped by addition of an equal volume of 2×SDS sample buffer. Following SDS-PAGE, proteins were stained with Coomassie Blue (Bio-Rad).

pro-ICA512 = assay: Immunoblot for pro-ICA512 and ICA512-TMF in INS-1 cells; type: cell-based, rat; settings: 60 μM Calpeptin
Method: Culture of INS-1 cells. INS-1 cells were grown as described^27. In some instances cells were pre-incubated for 1 hour in resting buffer (0 mM glucose, 5 mM KCl) and then for 2 or 6 hours in resting or stimulating (25 mM glucose, 55 mM KCl) buffers as described^7. Calpeptin (Calbiochem) was added in the last 15 minutes of the pre-incubation, and then for the entire following period before cells were harvested. Cells were stimulated with 20 nM human growth hormone (hGH) for 20 minutes following 18 hours incubation in low serum medium (LSM) containing RPMI-1640, 11 mM glucose, 0.5% FBS 25 mM HEPES, 1% penicillin-streptomycin and 0.05 mM β-mercaptoethanol. After washing, cells were either harvested or incubated in LSM for 6 additional hours. For immunoprecipitation cells were collected 1 hour after stimulation with hGH.
Cell extracts and western blotting. INS-1 cells and pancreatic islets were harvested at 4° C. in RIPA buffer [50 mM Tris-HCl at pH 8.0, 150 mM NaCl, 1% NP-40, 0.1% SDS, 0.5% sodium deoxycholate, and 1× protease inhibitor cocktail (Sigma)] to obtain total extracts. Insoluble material was removed by centrifugation. Cytosolic and nuclear extracts were prepared using the NE-PER Nuclear and Cytoplasmic Extraction Reagents (Pierce). Proteins were separated by 8-10% SDS-PAGE and immunoblotted with the following antibodies: mouse monoclonals anti-ICA512^7, anti-STAT5 (Santa Cruz), anti-γ-tubulin and anti-HA (Sigma); rabbit anti-PY-STAT5 and anti-STAT3 (Cell Signaling); affinity purified goat anti-GFP IgGs. Chemiluminescence was developed using the Supersignal West Pico or Femto kits (Pierce) and detected with a LAS 3000 Bioimaging System (Fuji). Protein signals were quantified with the Image Gauge v3.45 software (Fuji). Half the amount of nuclear extract proteins were immunoblotted relative to total and cytosolic extract proteins.

ICA512-TMF = assay: Stimulus-induced decrease of ICA512-TMF in rat pancreatic islets (western blot); type: cell-based; settings: purified rat pancreatic islets; with or without 60 μM calpeptin
Method: Islet isolation and cell culture. Pancreatic islets were isolated from female Wistar rats by collagenase digestion, purified by density gradient centrifugation, and cultured (400/60 mm culture dish) as described previously (26). INS-1 cells were grown as described (27). Cell extracts and western blotting. Wild type and transfected INS-1 cells and rat pancreatic islets (350-450) were pre-incubated for 60 minutes in resting buffer containing 0 mM glucose and 5 mM KCl and then incubated for various times in fresh resting or stimulating buffer including 25 mM glucose and 55 mM KCl, as previously described (7). […] Next, the cells were washed with ice cold PBS, and extracted in lysis buffer (10 mM Tris-HCl at pH 8.0, 140 mM NaCl, 1% Triton X-100, 1 mM EDTA, 1 mM PMSF, and 1% protease inhibitor cocktail (Sigma, St. Louis, Mo.) at 4° C. Cytosolic and nuclear extracts were prepared using the NE-PER Nuclear and Cytoplasmic Extraction Reagents (Pierce, Rockford, Ill.) in accordance with the manufacturer's instructions. Protein concentration was measured using the Bio-Rad Protein Assay Reagent (Bio-Rad, Hercules, Calif.). Equivalent amount of protein was separated by 8-10% SDS-PAGE, except for nuclear extracts, in which case half of the protein were loaded compared to the corresponding cytosolic extracts. […] Quantitation of protein signals was performed with the Image Gauge v3.45 software (Fuji).

## CCCC[C@@H](C=O)NC(=O)[C@H](CC(C)C)NC(=O)OCc1ccccc1 [calpeptin]
μ-calpain
  Cleavage by μ-calpain: inhibited
pro-ICA512; cells stimulated for 2 hours
  rapid induction of pro-ICA512: did not prevent the rapid induction of pro-ICA512
pro-ICA512; cells stimulated for 6 hours
  greater induction of pro-ICA512 and decrease of ICA512-TMF: partially inhibited
ICA512-TMF
  decrease of ICA512-TMF upon stimulation: calpeptin-sensitive decrease of ICA512-TMF
